Values quoted from earlier work in patent US20020148003A1, “Transgenic plant or plants with a naturally high water content overproducing at least two amino acids of the aspartate family” (AVEBE, priority 1996, published 2002).

What was measured:
E. coli DHPS = E. coli DHPS (Escherichia coli, UniProt P0A6L2); conditions: lysine inhibition, read-out: I50 of E. coli DHPS for lysine
[1] = test system: plant dihydrodipicolinate synthase (DHPS)
[2] = molecular target: plant aspartate kinase (AK) sensitive to lysine; conditions: plant AKs, lysine inhibition; read-out: I50 of plant AKs sensitive to lysine

Sequence of E. coli DHPS (P0A6L2 whole entry): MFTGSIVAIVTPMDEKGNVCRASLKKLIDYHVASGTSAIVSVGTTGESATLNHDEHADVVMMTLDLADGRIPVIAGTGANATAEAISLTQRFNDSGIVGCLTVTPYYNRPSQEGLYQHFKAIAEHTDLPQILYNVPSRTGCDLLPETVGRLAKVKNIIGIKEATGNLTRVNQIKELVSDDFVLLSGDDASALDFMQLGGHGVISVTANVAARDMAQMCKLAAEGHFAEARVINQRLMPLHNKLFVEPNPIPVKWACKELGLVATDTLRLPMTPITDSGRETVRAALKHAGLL

For `NCCCC[C@H](N)C(=O)O` [lysine], the IC50 (E. coli DHPS) is listed as roughly 1000 µM, the “sensitivity to lysine inhibition, plant DHPS versus E. coli DHPS” value ([1]; plant DHPS more sensitive than E. coli DHPS) is listed as “about 100 fold” and the “sensitivity to lysine inhibition, plant DHPS versus plant AKs” value ([1]; plant DHPS more sensitive than lysine-sensitive plant AKs) is listed as “about 10 fold”. The IC50 ([1]; plant DHPS, feedback inhibition by end product, read-out: I50 of DHPS for lysine) was 10 to 50 µM and the IC50 [2] was 100 to 700 µM.
